These results are taken from ChEMBL document CHEMBL1149193, “Selective optimization of side activities: another way for drug discovery” (J Med Chem, 2004).

Assay [1] deals with T1, Alpha-1A adrenergic receptor (Homo sapiens, UniProt P35348).
T1 sequence (P35348 whole entry): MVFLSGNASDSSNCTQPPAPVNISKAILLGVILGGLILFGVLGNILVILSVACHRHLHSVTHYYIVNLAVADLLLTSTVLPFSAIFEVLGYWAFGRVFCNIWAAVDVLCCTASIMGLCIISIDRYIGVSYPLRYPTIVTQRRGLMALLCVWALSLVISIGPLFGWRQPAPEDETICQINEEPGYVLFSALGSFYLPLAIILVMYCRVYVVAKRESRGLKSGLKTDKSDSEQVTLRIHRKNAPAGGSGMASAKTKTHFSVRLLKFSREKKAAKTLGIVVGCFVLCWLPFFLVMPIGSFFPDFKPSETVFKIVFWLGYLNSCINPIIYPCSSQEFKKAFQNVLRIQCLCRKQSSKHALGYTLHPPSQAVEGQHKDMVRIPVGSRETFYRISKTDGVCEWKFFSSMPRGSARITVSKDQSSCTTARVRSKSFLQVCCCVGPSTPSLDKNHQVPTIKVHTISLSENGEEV
Description: Binding affinity towards recombinant human alpha-1A adrenergic receptor

Another assay is filed under the species Mus musculus. The experiment in a line: animal or person. It counts as functional. Conditions: sc.
Another assay addresses T2, D(4) dopamine receptor (Homo sapiens, UniProt P21917).
T2 sequence (P21917 whole entry): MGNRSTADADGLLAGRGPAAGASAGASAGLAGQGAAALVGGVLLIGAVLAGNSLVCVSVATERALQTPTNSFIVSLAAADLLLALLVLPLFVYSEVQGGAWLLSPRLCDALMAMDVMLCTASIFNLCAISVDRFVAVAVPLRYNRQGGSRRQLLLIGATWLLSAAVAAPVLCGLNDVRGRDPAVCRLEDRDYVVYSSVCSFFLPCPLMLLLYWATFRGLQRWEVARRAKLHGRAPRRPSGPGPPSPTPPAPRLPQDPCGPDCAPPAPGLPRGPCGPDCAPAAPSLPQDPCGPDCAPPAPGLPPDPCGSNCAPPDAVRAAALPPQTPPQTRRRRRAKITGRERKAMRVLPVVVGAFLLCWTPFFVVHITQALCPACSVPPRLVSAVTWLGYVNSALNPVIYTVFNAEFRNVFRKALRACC

For the next assay, the target named is D(3) dopamine receptor (Homo sapiens, UniProt P35462).

Each structure is given as a SMILES string.

Sequence of D(3) dopamine receptor (P35462 whole entry): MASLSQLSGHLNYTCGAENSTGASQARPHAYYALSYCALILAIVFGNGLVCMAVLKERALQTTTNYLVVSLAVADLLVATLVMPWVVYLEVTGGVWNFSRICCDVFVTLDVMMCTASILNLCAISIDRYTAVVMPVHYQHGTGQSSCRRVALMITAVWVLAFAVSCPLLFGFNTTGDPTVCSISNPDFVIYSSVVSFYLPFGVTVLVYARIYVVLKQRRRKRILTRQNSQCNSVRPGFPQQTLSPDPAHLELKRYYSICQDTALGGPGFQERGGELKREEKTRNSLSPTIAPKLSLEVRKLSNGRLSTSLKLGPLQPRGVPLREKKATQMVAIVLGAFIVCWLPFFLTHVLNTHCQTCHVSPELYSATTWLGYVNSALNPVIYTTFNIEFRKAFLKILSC
Description for D(3) dopamine receptor: Binding affinity against Dopamine receptor D3
Description for D(4) dopamine receptor: Binding affinity towards human Dopamine receptor D4
Description for Mus musculus: In vivo inhibitory activity for apomorphine induced climbing in mice, sc

As a reminder, the Ki is a dissociation constant, usually derived from enzyme kinetics or from competition with a known ligand. The low end stands for higher affinity, the high end for lower affinity. For `COCC1=C(C(=O)OC)[C@H](c2ccc(F)c(F)c2)C(C(=O)NCCCN2CCC(c3ccccn3)CC2)C(=O)N1` (some centres undefined), the Ki in assay [1] stood at 0.36 nM.
The ED50 is the midpoint of the dose-response relation. As to `COc1cc(NC(=O)C2CC2)c(Cl)cc1C(=O)NC1CCN(Cc2ccccc2)C1` (centres undefined), it took a dose of 0.32 mg/kg to reach the 50% effect level in the assay listed under Mus musculus (ED50). Besides, the results for the Ki at D(4) dopamine receptor and at D(3) dopamine receptor were 2.1 nM and 21 nM, respectively.
